pIC50: −log10 of the molar value.
What follows are molecules tested against T1, KRAS (aa 1-169) G12C, C51S, C80L, C118S (Homo sapiens, UniProt P01116, C118S/C51S/C80L/G12C) (assay: KRAS G12C SOS1-mediated nucleotide exchange / GST-cRaf RBD binding FRET assay). Settings: GDP-loaded KRAS G12C pre-incubated with compound at 24° C. for 3 hrs; SOS1, GTPγS and GST-cRaf RBD added; FRET 665 nm/620 nm.
T1 construct: The KRAS (aa 1-169) G12C, C51S, C80L, C118S with a His-tag; made in house
T1 sequence (P01116 1-169 isoform P01116-2 G12C/C51S/C80L/C118S): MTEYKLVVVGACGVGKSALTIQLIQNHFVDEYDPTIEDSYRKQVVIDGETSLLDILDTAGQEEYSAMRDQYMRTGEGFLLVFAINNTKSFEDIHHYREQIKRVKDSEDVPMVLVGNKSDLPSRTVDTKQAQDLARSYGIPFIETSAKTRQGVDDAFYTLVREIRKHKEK
Format: biochemical
Procedure: Biochemical Functional Assay:
The KRAS (aa 1-169) G12C, C51S, C80L, C118S with a His-tag was expressed, purified and loaded with GDP in house. All protein and substrate solutions were prepared in assay buffer containing 25 mM HEPES pH7.5, 10 mM MgCl2, and 0.01% Triton X-100. Purified GDP-loaded KRAS (aa 1-169) G12C, C51S, C80L, C118S protein was pre-incubated with a serially diluted compound at 24° C. for 3 hrs. Purified SOS1 (aa 564-1049) protein, GTPγS (Sigma) and GST-cRaf RBD (aa 1-149) were then added to each well and incubated at 24° C. for additional 3 hrs. […] Following the incubation, Mab Anti-6HIS-Tb cryptate (Cisbio) and Mab Anti GST-XL665 (Cisbio) were added and further incubated at 24° C. for 3 hrs. The binding interaction between active GTPγS KRAS G12C and GST-cRaf RBD brings the Tb and XL665 into close proximity enabling an increased FRET signal (Ex337 nm, Em665 nm/620 nm). The inhibition percentage of nucleotide exchange reaction in presence of increasing concentrations of compounds was calculated based on the ratio of fluorescence at 665 nm to that at 620 nm detected on a BMG PHERAstar FSX instrument. The IC50 value of each compound was calculated from fitting the data to the four-parameter logistic model by Dotmatics.
With `C=CC(=O)N1CCN(c2nc(OC3CCN(C)CC3)nc3c2CN(Cc2cccc4ccccc24)C3)C[C@@H]1CC#N` [Example 18, (S)-2-(1-acryloyl-4-(2-((1-methylpiperidin-4-yl)oxy)-6-(naphthalen-1-ylmethyl)-6,7-dihydro-5H-pyrrolo[3,4-d]pyrimidin-4-yl)piperazin-2-yl)acetonitrile] the pIC50 was 5.81.
Work on `C=CC(=O)N1CCN(c2nc(OC[C@@H]3CCCN3C)nc3c2CN(C(=O)c2cccc(C)c2Cl)C3)C[C@@H]1CC#N` [Example 37, 2-((S)-1-acryloyl-4-(6-(2-chloro-3-methylbenzoyl)-2-(((S)-1-methylpyrrolidin-2-yl)methoxy)-6,7-dihydro-5H-pyrrolo[3,4-d]pyrimidin-4-yl)piperazin-2-yl)acetonitrile] yielded a pIC50 of 7.55.
`C=CC(=O)N1CCN(c2nc(OC[C@@H]3CCCN3C)nc3c2CN(Cc2cccc4c2CCO4)C3)C[C@@H]1CC#N` [Example 21, 2-((S)-1-acryloyl-4-(6-((2,3-dihydrobenzofuran-4-yl)methyl)-2-(((S)-1-methylpyrrolidin-2-yl)methoxy)-6,7-dihydro-5H-pyrrolo[3,4-d]pyrimidin-4-yl)piperazin-2-yl)acetonitrile] was tested, and the pIC50 was 7.03.
Work on `C=CC(=O)N1CCN(c2nc(OC[C@@H]3CCCN3C)nc3c2CN(Cc2cccc4ccccc24)C3)C[C@@H]1CC#N` [Example 6, 2-((S)-1-acryloyl-4-(2-(((S)-1-methylpyrrolidin-2-yl)methoxy)-6-(naphthalen-1-ylmethyl)-6,7-dihydro-5H-pyrrolo[3,4-d]pyrimidin-4-yl)piperazin-2-yl)acetonitrile] yielded a pIC50 of 7.56.
For `C=CC(=O)N1CCN(c2nc(OC[C@@H]3CCCN3C)nc3c2CN(c2ccc4ccccc4c2)C3)C[C@@H]1CC#N` [Example 26], the pIC50 was 5.97.
`C=CS(=O)(=O)N1CCN(c2nc(OC[C@@H]3CCCN3C)nc3c2CN(Cc2cccc4ccccc24)C3)CC1` [Example 3, (S)-2-((1-methylpyrrolidin-2-yl)methoxy)-6-(naphthalen-1-ylmethyl)-4-(4-(vinylsulfonyl)piperazin-1-yl)-6,7-dihydro-5H-pyrrolo[3,4-d]pyrimidine] was tested, and the pIC50 was 4.63.
`C=CC(=O)N1CCN(c2nc(OC[C@@H]3CCCN3C)nc3c2CN(C(=O)c2c(C)ccc4ccccc24)C3)C[C@@H]1CC#N` [Example 34, 2-((S)-1-acryloyl-4-(6-(2-methyl-1-naphthoyl)-2-(((S)-1-methylpyrrolidin-2-yl)methoxy)-6,7-dihydro-5H-pyrrolo[3,4-d]pyrimidin-4_yl)piperazin-2-yl)acetonitrile] showed a pIC50 of 6.30.
`C=CC(=O)N1CCN(c2nc(OC[C@@H]3CCCN3C)nc3c2CN(C(=O)c2c(O)cccc2F)C3)C[C@@H]1CC#N` [Example 36, 2-((S)-1-acryloyl-4-(6-(2-fluoro-6-hydroxybenzoyl)-2-(((S)-1-methylpyrrolidin-2-yl)methoxy)-6,7-dihydro-5H-pyrrolo[3,4-d]pyrimidin-4-yl)piperazin-2-yl)acetonitrile] gave a pIC50 of 6.62.
Work on `C=CC(=O)N1CCN(c2nc(OC[C@@H]3CCCN3C)nc3c2CN(Cc2ccc(F)c4ccccc24)C3)C[C@@H]1CC#N` [Example 10, 2-((S)-1-acryloyl-4-(6-((4-fluoronaphthalen-1-yl)methyl)-2-(((S)-1-methylpyrrolidin-2-yl)methoxy)-6,7-dihydro-5H-pyrrolo[3,4-d]pyrimidin-4-yl)piperazin-2-yl)acetonitrile] yielded a pIC50 of 6.38.
`C=CC(=O)N1CCN(c2nc(OC[C@@H]3CCCN3C)nc3c2CN(Cc2cc(O)cc4ccccc24)C3)C[C@@H]1CC#N` [Example 25, 2-((S)-1-acryloyl-4-(6-((3-hydroxynaphthalen-1-yl)methyl)-2-(((S)-1-methylpyrrolidin-2-yl)methoxy)-6,7-dihydro-5H-pyrrolo[3,4-d]pyrimidin-4-yl)piperazin-2-yl)acetonitrile] showed a pIC50 of 8.49.
Work on `C=CC(=O)N1CCN(c2nc(OC[C@@H]3CCCN3C)nc3c2CN(C(=O)c2cccc4cccc(Br)c24)C3)C[C@@H]1CC#N` [Example 52] yielded a pIC50 of 8.07.

Source: patent US12630552B2, “Inhibitors of KRAS G12C” (BEIGENE, LTD., priority 2019, dated 2026)
